Reference: patent US8044054B2, “Stereoisomerically enriched 3-aminocarbonyl bicycloheptene pyrimidinediamine compounds and their uses” (Rigel Pharmaceuticals, Inc., priority 2004, dated 2011)
Structures can show the parent of a compound that is named as a salt. Where two headings read alike, the source gives them in different places.

Experiments:
[1] = test system: K562 (bone marrow chronic myelogenous leukemia); assay: In vitro antiproliferation assay, K562; format: cell-based
[2] = test system: THP-1 (monocyte acute monocytic leukemia); assay: In vitro antiproliferation assay, THP-1; format: cell-based
A549 (lung carcinoma) = assay: In vitro antiproliferation assay, A549; format: cell-based
[3] = test system: PC3 (prostate adenocarcinoma); assay: In vitro antiproliferation assay, PC3; format: cell-based
U2OS (bone osteosarcoma) = assay: In vitro antiproliferation assay, U2OS; format: cell-based; details: U20S
[4] = test system: L1210 (mouse lymphocytic leukemia); assay: In vitro antiproliferation assay, L1210; format: cell-based
[5] = test system: ASPC-1 (pancreatic adenocarcinoma); assay: In vitro antiproliferation assay, ASPC-1; format: cell-based; details: ASPC1
H7299 = assay: In vitro antiproliferation assay, H7299; format: cell-based
[6] = test system: DU145 (prostate carcinoma); assay: In vitro antiproliferation assay, DU145; format: cell-based
[7] = test system: SW620 (colorectal adenocarcinoma); assay: In vitro antiproliferation assay, SW620; format: cell-based
[8] = test system: H1299 (non-small cell lung carcinoma); assay: In vitro antiproliferation assay, H1299; format: cell-based
[9] = test system: SK-OV-3 (ovarian adenocarcinoma); assay: In vitro antiproliferation assay, SK-OV-3; format: cell-based; details: Homo sapiens, SKOV3
[10] = Pharmacokinetics in monkeys, plasma concentration over time; format: in vivo
Method: Compound 60a was administered to monkeys intravenously (1 mg/kg in saline) and orally (5 mg/kg in saline) and the plasma concentrations monitored over time.

[11] = test system: SU86.86 (pancreatic carcinoma); assay: In vitro antiproliferation assay, SU86.86; format: cell-based; details: Homo sapiens, SU.86.86
[12] = test system: variety of different tumor cell lines; assay: In vitro antiproliferation assays, summary over the tumor cell lines tested; format: cell-based; details: for IC50's against tumor cell lines, tested as isolated stereoisomers: general range over the cell lines
Source text: The cis racemate of structural formula (IIa) can be referred to as the 2-exo-3-exo racemate, and includes the (1R,2R,3S,4S) and (1S,2S,3R,4R) diastereomers of structural formulae (Ia) and (Ib), respectively. The cis racemate of structural formula (IIb) can be referred to as the 2-endo-3-endo racemate, and includes the (1R,2S,3R,4S) and (1S,2R,3S,4R) diastereomers of structural formulae (Ic) and (Id), respectively. […] Moreover, it has been discovered that the (1R,2R,3S,4S) diastereomer of racemate r1 is largely responsible for the potency of the racemate r1.

Colo205 tumors = test system: Colo205 tumors
Method: (§1) Compound 60a.2HCl, was tested for its ability to shrink A549 and Colo205 tumors in a standard xenograft therapeutic model in SCID mice, and Colo205 and MiaPaCa tumors in a standard xenograph regression model in SCID mice. When palpable tumors appeared and were of a preselected volume (approx. 100 mm3 for treatment model; >300 mm3 for regression model), the mice were administered test compounds in the amounts and according to the dosing regimens specified in TABLE 3 (treatment protocol) and TABLE 4 (regression protocol), below.

A549 tumors = details: A549, treatment model, 5 days on/2 days off, 10 mg/kg qd, p>0.05
Method: as §1

MiaPaCa tumors = details: regression model, 10 mg/kg/day daily (3 cycles), oral or i.p.
Method: as §1

[13] = test system: H460 (large cell lung carcinoma); details: read-out: In Vitro IC50
Method: Compounds 60r1, 60r2, 60r1.2HCl, 60a, 60b and 60a.HCl were tested against a variety of different types of tumor cells for their ability to inhibit proliferation using standard in vitro antiproliferation assays.

Aurora kinase-B = target: T1, Aurora kinase-B (Homo sapiens, UniProt Q96GD4); assay: Functional cellular assay of Aurora kinase-B, phosphorylation of histone H3 in A549 cells; format: cell-based
T1 construct: endogenous in cells; host or cells: A549 cells
T1 sequence (Q96GD4 whole entry): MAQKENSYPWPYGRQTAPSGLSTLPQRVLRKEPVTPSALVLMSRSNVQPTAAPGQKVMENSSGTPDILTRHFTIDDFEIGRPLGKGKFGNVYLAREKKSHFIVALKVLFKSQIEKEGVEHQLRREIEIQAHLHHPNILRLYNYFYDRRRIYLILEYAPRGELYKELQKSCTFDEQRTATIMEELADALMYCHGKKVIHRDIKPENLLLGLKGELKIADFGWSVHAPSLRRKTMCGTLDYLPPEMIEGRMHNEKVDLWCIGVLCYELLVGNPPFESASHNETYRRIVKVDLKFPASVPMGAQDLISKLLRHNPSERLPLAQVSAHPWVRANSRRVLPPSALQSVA
Method: Compounds 60a and 60b were tested for their ability to inhibit Aurora kinase-B in a functional cellular assay involving phosphorylation of its substrate, histone H3. For the assay, A549 cells were seeded into the wells of a microtiter tray (5000 cells/well in 100 μl F12K media) late in the afternoon on Day 1. The cells were grown overnight (37° C., 5% CO2). On Day 2, 50 μl nocodazole (1 μM in media) was added to each well, giving a final concentration of 333 nM. Cells were grown for an additional 18 hrs under the same conditions.
On Day 3, 50 μl aliguots of varying concentrations of test compound were added to the wells. […] The cells were then stained with a secondary antibody labeled with a fluorescent dye (secondary antibody donkey anti-mouse AlexFluor 488 (Invitrogen Molecular Probes; 1:2000) and DAPI (1:15,000 of 1 mg/ml stock) for 1 hr at room temperature, washed three times with DPBS (200 μl/well) and stored under DPBS (100 μl/well) at 4° C. until ready for analysis.
A Zeiss Axiovert S100 inverted fluorescent microscope with a Plan-NEOFLUAR 10× objective, a Hamamatsu Lightningcure 200 Mercury-Xenon light source and an Omega Optical XF57 quad filter was used for all data collection. […] Images were captured and analyzed in 12-bit format using segmentation and morphological routines contained in the Image Pro software package. […]

Cc1cc(Nc2ncc(F)c(NC3C4C=CC(C4)C3C(N)=O)n2)ccc1N1CCN(C)CC1 (racemic) [Compound 60r1, 2-exo-3-exo racemic N4-(3-aminocarbonylbicyclo[2.2.1]hept-5-ene-2-yl)-5-fluoro-N2-[3-methyl-4-(4-methylpiperazin-1-yl)phenyl]-2,4-pyrimidinediamine]
IC50 [1]: 20 to 1000 nM | IC50 [2]: 20 to 1000 nM | IC50 (A549 (lung carcinoma)): 10 to 20 nM | IC50 [3]: 10 to 20 nM | IC50 (U2OS (bone osteosarcoma)): 10 to 20 nM | IC50 [4]: 20 to 1000 nM | IC50 [5]: 10 to 20 nM | IC50 (H7299): 10 to 20 nM | IC50 [6]: 10 to 20 nM | IC50 [7]: 20 to 1000 nM

Cc1cc(Nc2ncc(F)c(NC3C4C=CC(C4)C3C(N)=O)n2)ccc1N1CCN(C)CC1 (racemic) [Compound 60r1.2HCl, 2-exo-3-exo racemic N4-(3-aminocarbonylbicyclo[2.2.1.]hept-5-ene-2-yl)-5-fluoro-N2-[3-methyl-4-(4-methylpiperazin-1-yl)phenyl]-2,4-pyrimidinediamine bis hydrogen chloride salt]
IC50 [8]: 20 to 1000 nM | IC50 (A549 (lung carcinoma); listed as 60r1-2HCl): 20 to 1000 nM | IC50 (H7299; listed as 60r1-2HCl): 20 to 1000 nM

Cc1cc(Nc2ncc(F)c(N[C@H]3[C@@H](C(N)=O)[C@@H]4C=C[C@H]3C4)n2)ccc1N1CCN(C)CC1 [Compound 60a, (1R,2R,3S,4S)—N-4-(3-aminocarbonylbicyclo[2.2.1]hept-5-ene-2-yl)-5-fluoro-N2-[3-methyl-4-(4-methylpiperazin-1-yl)phenyl]-2,4-pyrimidinediamine]
IC50 ([1]; Homo sapiens): 20 to 1000 nM | IC50 [9]: 10 to 20 nM | IC50 ([2]; Homo sapiens): 20 to 1000 nM | time plasma concentration remained above the IC50 of 7 nM ([10]; intravenously, 1 mg/kg in saline): 11 h | time plasma concentration was maintained above the IC50 ([10]; orally, 5 mg/kg in saline): over 20 hrs | IC50 [11]: 10 to 20 nM | IC50's against tumor cell lines, tested as isolated stereoisomers [12]: nanomolar range | potency relative to the (1S,2S,3R,4R) enantiomer ([12]; in general, same cell lines): ~1000 fold | IC50 ([4]; Mus musculus): 10 to 20 nM | IC50 (H7299): 10 to 20 nM | IC50 ([6]; Homo sapiens, DU-145): 10 to 20 nM | IC50 ([7]; Homo sapiens, SW-620): 10 to 20 nM

Cc1cc(Nc2ncc(F)c(N[C@H]3[C@@H](C(N)=O)[C@@H]4C=C[C@H]3C4)n2)ccc1N1CCN(C)CC1.Cl.Cl [Compound 60a.2HCl, (1R,2R,3S,4S)—N-4-(3-aminocarbonylbicyclo[2.2.1]hept-5-ene-2-yl)-5-fluoro-N2-[3-methyl-4-(4-methylpiperazin-1-yl)phenyl]-2,4-pyrimidinediamine bis hydrogen chloride salt]
tumor growth rate (Colo205 tumors; Colo205, regression model, 10 mg/kg/day oral daily (13 days)): Significant reductions in tumor growth rate | tumor growth rate compared to vehicle control (Colo205 tumors; Colo205, treatment model, daily and pulsed dosing regimens, all dosage levels tested (2 and 10 mg/kg/day oral)): significant (p<0.050) reductions in tumor growth rate | reduction in mean tumor volume (A549 tumors): ~40% | tumor growth rate (MiaPaCa tumors): Significant reductions in tumor growth rate | IC50 [8]: 20 to 1000 nM | IC50 (A549 (lung carcinoma)): < 10 nM | IC50 [13]: < 10 nM | IC50 (H7299): 20 to 1000 nM | IC50 [6]: 20 to 1000 nM

Cc1cc(Nc2ncc(F)c(N[C@@H]3[C@H](C(N)=O)[C@H]4C=C[C@@H]3C4)n2)ccc1N1CCN(C)CC1 [Compound 60b, (1S,2S,3R,4R)—N-4-(3-Aminocarbonylbicyclo[2.2.1]hept-5-en-2-yl)-5-fluoro-N2-[3-methyl-(4-methylpiperazin-1-yl)phenyl]-2,4-pyrimidinediamine]
IC50 [2]: 20 to 1000 nM | IC50 (U2OS (bone osteosarcoma)): 20 to 1000 nM | IC50 of 60b relative to its enantiomer 60a (Aurora kinase-B): approx. 350 times greater | IC50's against tumor cell lines, tested as isolated stereoisomers [12]: micromolar range | IC50 [6]: 20 to 1000 nM
